Where a name gives a salt, the structure may show the parent alone.
Structure (SMILES)	melting point
CN(C)C1CCc2cccc(C3(O)CCCCC3)c2C1 (stereo not drawn) (as salt: hydrobromid) (hydrate or solvate)	210 to 211 °C
Cc1cccc2c1C[C@H](N(C)C)CC2 (as salt: hydrochloride)	180 to 181 °C (dec.)
C/C=C(\CC)c1cccc2c1C[C@H](N(C)C)CC2 (as salt: hydrochloride)	158 to 160 °C
COCCOCc1cccc2c1CC(N(C)C)CC2 (stereo not drawn) (as salt: hydrochloride)	147 to 148 °C
CN(C)C1CCc2cccc(C3(O)CCCCCC3)c2C1 (stereo not drawn) (as salt: hydrobromid) (hydrate or solvate)	186 to 187 °C
CN(C)C1CCc2cccc(C3CCCC3)c2C1 (stereo not drawn) (as salt: hydrochloride)	158 to 159 °C
